Consider two substances from patent US12064464B2, “Plantaricin NC8 alpha beta markedly enhances the effects of antibiotics” (priority 2018, dated 2024).

Assay [1] relates to S. epidermidis ATCC 12228. Put plainly: Broth microdilution MIC/MBC. The assay is classed as cell-based, Staphylococcus epidermidis. An excerpt:
Staphylococcus aureus CCUG 35601 (MRSA, Culture Collection, University of Gothenburg) and Staphylococcus aureus ATCC 29213 (MSSA, ATCC, Manassas, VA). Staphylococcus epidermidis ATCC 12228 (ATCC, Manassas, VA), RP62A, N15 and 10 clinical isolates of Staphylococcus epidermidis that have previously been characterized. Isolated Escherichia coli, Enterococcus faecium (including VRE), Pseudomonas aeruginosa, Klebsiella pneumoniae, Enterobacter spp and Acinetobacter baumannii were obtained from Orebro University hospital. Isolated Streptococcus mutans, Streptococcus constellatus and Streptococcus anginosus were obtained from Malmo University. The bacteria were grown on Luria-Bertani (LB) agar plates, supplemented with 5% defibrinated horse blood, and incubated at 37° C. overnight. Single colonies were inoculated into 5 ml of LB broth and incubated on a shaker (300 rpm) at 37° C. overnight. The bacterial concentration was determined by viable count and adjusted to correlate with approximately 10^9 CFU/ml.
The broth microdilution method was used to determine minimal inhibitory concentration (MIC) and minimal bactericidal concentration (MBC). Two-fold serial dilutions of the peptides were used and the final concentrations ranged from 0.097-50 μM. […] The effect of bacteriocin-antibiotic combinations was accomplished by using the same concentration series of antibiotics with a constant concentration of PLNC8 αβ (3.1 μM) in all the wells. […] All experiments were repeated at least three times.

Assay [2] can be described thus: Fluorescence leakage assay (CF release from liposomes). The conditions noted are these: for lysis of liposomes: after 2 min, both the L-form and D-form; for disruption of liposome membranes (CF release): peptide alone. On the procedure:
Liposomes were prepared by dry film formation, hydration and finally extrusion through a polycarbonate membrane to form monodisperse large unilamellar vesicles. […] A dry lipid film was formed by evaporation of the chloroform by nitrogen flow and overnight lyophilization. The film was hydrated with either 10 mM phosphate buffer (PB) pH 7 or 10 mM phosphate buffer saline (PBS) pH 7, and the solution was vortexed for 1 min and put on a shaker for 1 h before extruded 21 times through a 100 nm pore-sized polycarbonate membrane. For fluorescence leakage assay the lipid film was hydrated with buffer (PBS) containing self-quenching concentration (50 mM) of 5(6)-carboxyfluorescein (CF) (Sigma Aldrich) and liposomes were prepared as described above. Removal of unencapsulated CF was done by gel filtration using a PD-25 column (GE Healthcare, Uppsala, Sweden) and liposomes with encapsulated CF were eluted with PBS. Leakage of the liposome encapsulated fluorophore CF due to additions of the bacteriocins was recorded using a fluorescence plate reader (Infinite 200, Tecan, Austria) where λex=485 nm and λem=520 nm. CF was encapsulated at self-quenching concentration, and CF release results in an increased fluorescence signal. […] In order to estimate the maximum release from each sample a final addition of 0.5% Triton X-100 was made at the end of all measurements and the total amount of CF (100% release) was estimated after 15 min incubation. The CF release is presented as percentage release for each time interval (measurements taken every minute). The percentage CF release is calculated as 100×(F−F0)/(FT−F0) where F0 is the initial fluorescence intensity of CF before peptide addition, F is the fluorescence intensity of CF at time point t and FT is the maximum fluorescence after the addition of Triton X-100.

In assay [3] the test system is S. epidermidis RP62A biofilms. Put plainly: Bacterial biofilm disruption. It is filed as cell-based, Staphylococcus epidermidis. Conditions: 1 h. On the procedure:
S. epidermidis RP62A was inoculated into 5 ml of LB broth and incubated on a shaker at 37° C. overnight. The bacterial culture was diluted 1:100 into fresh media and 100 μl of bacterial suspension per well was added in a 96-well microtiter plate and incubated statically at 37° C. for 20 h. The wells were washed three times by submerging the plate into a container with distilled water to remove unattached cells. Fresh LB media was added to each well (100 μl) followed by addition of the peptides in different concentrations. The plate was incubated statically for 1 h. Detached material in the wells were transferred to a new microtiter plate for absorbance measurements at 620 nm. The remaining attached biofilms were stained with 0.1% crystal violet for 15 min before the plate was washed four times in distilled water as mentioned above and allowed to dry at room temperature for 2 h. The crystal violet was solubilized in 30% acetic acid for 15 min and the absorbance quantified at 550 nm. Each experiment, with three replicates, was repeated three times.

On to “H-DLTTKLWSSWGYYLGKKARWNLKHPYVQF-OH [PLNC8 α]”, for which, in assay [1] (co-incubation with α-peptide), the “enhancement of the inhibitory effects of β1-20 and β7-20” value is on record as “not further enhanced”. Besides, the “inhibitory and bactericidal effects on S. epidermidis” value in assay [1] (α-peptide in combination with the β-peptide) is “inhibited”. Further, in assay [2], the lysis of liposomes result is “not” and the “disruption of liposome membranes (CF release)” value is on record as “disrupted the membrane of the liposomes”. In addition, in assay [3], the disruption of biofilms result is “disruptive effects on the biofilms”.
Consider “H-SVPTSVYTLGIKILWSAYKHRKTIEKSFNKGFYH-OH [PLNC8 β]”, for which the “growth inhibition of S. epidermidis” value in assay [1] (single full-length or truncated peptide) is reported as “inhibited”. Moreover, in assay [2], the lysis of liposomes entry was “complete lysis of liposomes after 2 min” and the “disruption of liposome membranes (CF release)” value was “Disruption of the liposome membranes”. The disruption of biofilms result in assay [3] is “disruptive effects on the biofilms”.
